From patent US4289910A, “1-Hydroxymethyl-prosten-1-ol derivatives” (American Cyanamid Company, priority 1980, dated 1981)

Columns and labels:
Assay type in all cases: in vivo
[1] = tested on: Ach; experiment: Konzett data, Ach
[2] = tested on: 5-HT; experiment: Konzett data, 5-HT
[3] = tested on: Hist; experiment: Konzett data, Hist

SMILES: CCCCCC(C)(O)/C=C/C1C(O)CC(=O)C1C/C=C\CCCCO (racemic) [dl-1,11 ,15-trihydroxymethyl-9-oxo-15-methyl-5-cis-13-trans prostadiene]
- Ach (ED50) [1]: 4.3 mg/kg
- 5-HT (ED50) [2]: 8.3 mg/kg
- Hist (ED50) [3]: 0.75 mg/kg

SMILES: C=CC(O)(C/C=C/[C@H]1[C@H](O)CC(=O)[C@@H]1CCCCCCC(O)CO)CCCC (relative stereo) [3β-(4-Butylhydroxy-4-hydroxy-1,5-hexadienyl)-2α-(7,8-dihydroxyoctyl)-4α-hydroxycyclopentanone]
- ED50 [1]: 20.1 mg/kg

SMILES: CCCCC(C)(O)C/C=C/[C@H]1[C@H](O)CC(=O)[C@@H]1C/C=C\CCCC(O)CO (relative stereo) [11α,16-Dihydroxy-1-hydroxymethyl-16-methyl-9-oxo-5-cis-13-trans-prostadien-1-ol]
- ED50 [1]: 331 mg/kg

SMILES: CCCCC(C)(O)C/C=C/[C@H]1[C@H](O)CC(=O)[C@@H]1CCCCCCC(O)CO (relative stereo) [11α,16-Dihydroxy-1-hydroxymethyl-16-methyl-,9-oxo-13-trans-prosten-1-ol]
- ED50 [1]: 75.9 mg/kg

SMILES: C=CC(O)(C/C=C/[C@H]1[C@H](O)CC(=O)[C@@H]1C/C=C\CCCC(O)CO)CCCC (relative stereo) [11α,16-Dihydroxy-1-hydroxymethyl-16-vinyl-9-oxo-5-cis-13-trans-prostadien-1-ol]
- ED50 [1]: 11.8 mg/kg
